According to patent publication US20170150719A1, “FUNGICIDAL PYRAZOLES AND THEIR MIXTURES” (E I DU PONT DE NEMOURS AND COMPANY, priority 2010, published 2017):

These compounds were tested on Septoria nodorum (assay: Test E: Septoria glume blotch, preventive spray on wheat seedlings, visual disease rating). Details: Septoria glume blotch; 100 = 100% disease control, 0 = no disease control relative to the controls.

SMILES | Test E rating (disease control) [%]
Cc1nn(C)c(Nc2c(F)cc(F)cc2F)c1-c1ccc(Cl)cc1Cl [compound 18] | 98
COc1cc(F)c(Nc2c(-c3c(F)cc(F)cc3F)c(C)nn2C)c(F)c1 [compound 19] | 0
COc1cc(F)c(-c2c(C)nn(C)c2Nc2c(F)cc(C#N)cc2F)c(F)c1 [compound 20] | 40
COc1cc(F)c(Nc2c(-c3c(F)cc(OC)cc3F)c(C)nn2C)c(F)c1 [compound 21] | 89
COc1cc(F)c(-c2c(C)nn(C)c2Oc2c(F)cccc2F)c(F)c1 [compound 22] | 78
COc1cc(F)c(-c2c(C)nn(C)c2Oc2c(F)cc(Br)cc2F)c(F)c1 [compound 24] | 84
Cc1nn(C)c(Nc2c(F)cc(C#N)cc2F)c1-c1c(F)cc(F)cc1F [compound 26] | 99
Cc1nn(C)c(Oc2ccc(C#N)cc2F)c1-c1c(F)cc(F)cc1F [compound 27] | 99
Cc1nn(C)c(Oc2ccc(C#N)cc2Cl)c1-c1c(F)cc(F)cc1F [compound 28] | 69
COc1ccc(-c2c(C)nn(C)c2Nc2c(F)cc(F)cc2F)c(Cl)c1 [compound 29] | 97

These compounds were tested on Blumeria graminis f. sp. tritici (assay: Test I: wheat powdery mildew, preventive spray on wheat seedlings, visual disease rating). Details: wheat powdery mildew; 100 = 100% disease control, 0 = no disease control relative to the controls.

SMILES | Test I rating (disease control) [%]
Cc1nn(C)c(Nc2c(F)cc(F)cc2F)c1-c1ccc(Cl)cc1Cl [compound 18] | 97
COc1cc(F)c(Nc2c(-c3c(F)cc(F)cc3F)c(C)nn2C)c(F)c1 [compound 19] | 91
COc1cc(F)c(-c2c(C)nn(C)c2Nc2c(F)cc(C#N)cc2F)c(F)c1 [compound 20] | 13
COc1cc(F)c(Nc2c(-c3c(F)cc(OC)cc3F)c(C)nn2C)c(F)c1 [compound 21] | 94
COc1cc(F)c(-c2c(C)nn(C)c2Oc2c(F)cccc2F)c(F)c1 [compound 22] | 99
COc1cc(F)c(-c2c(C)nn(C)c2Oc2c(F)cc(Br)cc2F)c(F)c1 [compound 24] | 100
Cc1nn(C)c(Nc2c(F)cc(C#N)cc2F)c1-c1c(F)cc(F)cc1F [compound 26] | 100
Cc1nn(C)c(Oc2ccc(C#N)cc2F)c1-c1c(F)cc(F)cc1F [compound 27] | 100
Cc1nn(C)c(Oc2ccc(C#N)cc2Cl)c1-c1c(F)cc(F)cc1F [compound 28] | 99
COc1ccc(-c2c(C)nn(C)c2Nc2c(F)cc(F)cc2F)c(Cl)c1 [compound 29] | 100

What follows are compounds tested on Septoria tritici (assay: Test F: wheat leaf blotch, preventive spray on wheat seedlings, visual disease rating). Details: 100 = 100% disease control, 0 = no disease control relative to the controls.
Assay type: in vivo
Excerpt: (§1) A hyphen (-) indicates no test results.

SMILES | Test F rating (disease control) [%]
Cc1nn(C)c(Nc2c(F)cc(F)cc2F)c1-c1ccc(Cl)cc1Cl [compound 18] | 99
COc1cc(F)c(Nc2c(-c3c(F)cc(F)cc3F)c(C)nn2C)c(F)c1 [compound 19] | 98
COc1cc(F)c(-c2c(C)nn(C)c2Nc2c(F)cc(C#N)cc2F)c(F)c1 [compound 20] | 99
COc1cc(F)c(Nc2c(-c3c(F)cc(OC)cc3F)c(C)nn2C)c(F)c1 [compound 21] | 99
COc1cc(F)c(-c2c(C)nn(C)c2Oc2c(F)cccc2F)c(F)c1 [compound 22] | 100
COc1cc(F)c(-c2c(C)nn(C)c2Oc2c(F)cc(Br)cc2F)c(F)c1 [compound 24] | 100
Cc1nn(C)c(Nc2c(F)cc(C#N)cc2F)c1-c1c(F)cc(F)cc1F [compound 26] | 100
Cc1nn(C)c(Oc2ccc(C#N)cc2F)c1-c1c(F)cc(F)cc1F [compound 27] | 100
Cc1nn(C)c(Oc2ccc(C#N)cc2Cl)c1-c1c(F)cc(F)cc1F [compound 28] | 100
COc1ccc(-c2c(C)nn(C)c2Nc2c(F)cc(F)cc2F)c(Cl)c1 [compound 29] | 99

These compounds were tested on Botrytis cinerea (assay: Test A: tomato Botrytis, preventive spray on tomato seedlings, visual disease rating). Details: tomato Botrytis; 100 = 100% disease control, 0 = no disease control relative to the controls.

SMILES | Test A rating (disease control) [%]
Cc1nn(C)c(Nc2c(F)cc(F)cc2F)c1-c1ccc(Cl)cc1Cl [compound 18] | 100
COc1cc(F)c(Nc2c(-c3c(F)cc(F)cc3F)c(C)nn2C)c(F)c1 [compound 19] | 99
COc1cc(F)c(-c2c(C)nn(C)c2Nc2c(F)cc(C#N)cc2F)c(F)c1 [compound 20] | 100
COc1cc(F)c(Nc2c(-c3c(F)cc(OC)cc3F)c(C)nn2C)c(F)c1 [compound 21] | 100
COc1cc(F)c(-c2c(C)nn(C)c2Oc2c(F)cccc2F)c(F)c1 [compound 22] | 100
COc1cc(F)c(-c2c(C)nn(C)c2Oc2c(F)cc(Br)cc2F)c(F)c1 [compound 24] | 99
Cc1nn(C)c(Nc2c(F)cc(C#N)cc2F)c1-c1c(F)cc(F)cc1F [compound 26] | 100
Cc1nn(C)c(Oc2ccc(C#N)cc2F)c1-c1c(F)cc(F)cc1F [compound 27] | 99
Cc1nn(C)c(Oc2ccc(C#N)cc2Cl)c1-c1c(F)cc(F)cc1F [compound 28] | 100
COc1ccc(-c2c(C)nn(C)c2Nc2c(F)cc(F)cc2F)c(Cl)c1 [compound 29] | 100

Each compound was assayed on Puccinia recondita f. sp. tritici (assay: Test G: wheat leaf rust, spray after inoculation (curative) on wheat seedlings, visual disease rating). Details: sprayed after inoculation, 100 = 100% disease control, 0 = no disease control.
Assay type: in vivo
Excerpt: as §1

SMILES | Test G rating (disease control) [%]
Cc1nn(C)c(Nc2c(F)cc(F)cc2F)c1-c1ccc(Cl)cc1Cl [compound 18] | 95
COc1cc(F)c(Nc2c(-c3c(F)cc(F)cc3F)c(C)nn2C)c(F)c1 [compound 19] | 0
COc1cc(F)c(-c2c(C)nn(C)c2Nc2c(F)cc(C#N)cc2F)c(F)c1 [compound 20] | 0
COc1cc(F)c(Nc2c(-c3c(F)cc(OC)cc3F)c(C)nn2C)c(F)c1 [compound 21] | 99
COc1cc(F)c(-c2c(C)nn(C)c2Oc2c(F)cccc2F)c(F)c1 [compound 22] | 98
COc1cc(F)c(-c2c(C)nn(C)c2Oc2c(F)cc(Br)cc2F)c(F)c1 [compound 24] | 0
Cc1nn(C)c(Nc2c(F)cc(C#N)cc2F)c1-c1c(F)cc(F)cc1F [compound 26] | 41
Cc1nn(C)c(Oc2ccc(C#N)cc2F)c1-c1c(F)cc(F)cc1F [compound 27] | 9
Cc1nn(C)c(Oc2ccc(C#N)cc2Cl)c1-c1c(F)cc(F)cc1F [compound 28] | 26
COc1ccc(-c2c(C)nn(C)c2Nc2c(F)cc(F)cc2F)c(Cl)c1 [compound 29] | 99

What follows are compounds tested on Alternaria solani (assay: Test B: tomato early blight, preventive spray on tomato seedlings, visual disease rating). Details: tomato early blight; 100 = 100% disease control, 0 = no disease control relative to the controls.

SMILES | Test B rating (disease control) [%]
Cc1nn(C)c(Nc2c(F)cc(F)cc2F)c1-c1ccc(Cl)cc1Cl [compound 18] | 98
COc1cc(F)c(Nc2c(-c3c(F)cc(F)cc3F)c(C)nn2C)c(F)c1 [compound 19] | 82
COc1cc(F)c(-c2c(C)nn(C)c2Nc2c(F)cc(C#N)cc2F)c(F)c1 [compound 20] | 100
COc1cc(F)c(Nc2c(-c3c(F)cc(OC)cc3F)c(C)nn2C)c(F)c1 [compound 21] | 100
COc1cc(F)c(-c2c(C)nn(C)c2Oc2c(F)cccc2F)c(F)c1 [compound 22] | 100
COc1cc(F)c(-c2c(C)nn(C)c2Oc2c(F)cc(Br)cc2F)c(F)c1 [compound 24] | 95
Cc1nn(C)c(Nc2c(F)cc(C#N)cc2F)c1-c1c(F)cc(F)cc1F [compound 26] | 100
Cc1nn(C)c(Oc2ccc(C#N)cc2F)c1-c1c(F)cc(F)cc1F [compound 27] | 99
Cc1nn(C)c(Oc2ccc(C#N)cc2Cl)c1-c1c(F)cc(F)cc1F [compound 28] | 17
COc1ccc(-c2c(C)nn(C)c2Nc2c(F)cc(F)cc2F)c(Cl)c1 [compound 29] | 99

What follows are compounds tested on Puccinia recondita f. sp. tritici (assay: Test H: wheat leaf rust, preventive spray on wheat seedlings, visual disease rating). Details: wheat leaf rust, sprayed the day before inoculation; 100 = 100% disease control, 0 = no disease control.

SMILES | Test H rating (disease control) [%]
Cc1nn(C)c(Nc2c(F)cc(F)cc2F)c1-c1ccc(Cl)cc1Cl [compound 18] | 99
COc1cc(F)c(Nc2c(-c3c(F)cc(F)cc3F)c(C)nn2C)c(F)c1 [compound 19] | 89
COc1cc(F)c(-c2c(C)nn(C)c2Nc2c(F)cc(C#N)cc2F)c(F)c1 [compound 20] | 68
COc1cc(F)c(Nc2c(-c3c(F)cc(OC)cc3F)c(C)nn2C)c(F)c1 [compound 21] | 96
COc1cc(F)c(-c2c(C)nn(C)c2Oc2c(F)cccc2F)c(F)c1 [compound 22] | 100
COc1cc(F)c(-c2c(C)nn(C)c2Oc2c(F)cc(Br)cc2F)c(F)c1 [compound 24] | 98
Cc1nn(C)c(Nc2c(F)cc(C#N)cc2F)c1-c1c(F)cc(F)cc1F [compound 26] | 99
Cc1nn(C)c(Oc2ccc(C#N)cc2F)c1-c1c(F)cc(F)cc1F [compound 27] | 99
Cc1nn(C)c(Oc2ccc(C#N)cc2Cl)c1-c1c(F)cc(F)cc1F [compound 28] | 99
COc1ccc(-c2c(C)nn(C)c2Nc2c(F)cc(F)cc2F)c(Cl)c1 [compound 29] | 99
